Assay: Aerobic stability of grass silage (method of Honig), PVC silos
Parameters: species or system ryegrass
Experimental: Second cut ryegrass was harvested at PLNC. The grass was determined to have an approximate dry matter of 35%.
Inoculation: Individual strains were supplied as fresh grown overnight culture. Cultures were adjusted to a standard concentration of 5.0×10^7 CFU/mL and applied using a syringe at a rate of 2.2 mL/kg of forage. The application rate for all strains was 1.1×10^5 CFU/g forage. Propionic acid (88%) was applied at a rate of 4.4 mL/kg fresh forage.
PVC Silos: PVC silos were filled at a packing density of 0.288 kg DM/silo (100 kg DM/m^3); approximately 0.82-0.95 kg/silo. Silos were air infused for 24 hours on days 28 and 42, and opened after 50-60 days of ensiling.
Aerobic Stability: The method of Honig (Proc. Of the Eurobac. Conf., P. Lingvall and S. Lindgren (ed.) (12-16 Aug. 1986) Swed. Univ. of Agric. Sci. Grass and Forage Report No. 3-1990. Pp. 76-81. Uppsala, Sweden) was used for measuring aerobic stability (see Table 1). ROT is defined as the time, in hours, for the silage to heat 1.7° C. after exposure to air. Cumm_DD is the integral value of the area between the time ROT is attained and the end of the experiment. Aerobic dry matter loss (% dry matter) was determined relating the increase in temperature and the time to energy losses occurring in the silage.

[1] = average across replicate studies A, B, C

Improvement of aerobic stability over the control (versus control): 96 h
SMILES: CCC(=O)O [Propionic Acid, Propionic acid]
Aerobic deterioration versus control grass silages: significantly less aerobic deterioration | Aerobic Dry Matter Loss, Avg. [1]: 0.43 % dry matter | ROT (time for the silage to heat 1.7° C. after exposure to air), Avg. [1]: 127 h | Aerobic Dry Matter Loss, replicate study A (replicate A): 0.29 % dry matter | ROT (time for the silage to heat 1.7° C. after exposure to air), replicate study A (replicate A): 137 h | Aerobic Dry Matter Loss, replicate study B (replicate B): 0 % dry matter | ROT (time for the silage to heat 1.7° C. after exposure to air), replicate study B (replicate B): 160 h | Aerobic Dry Matter Loss, replicate study C (replicate C): 1.01 % dry matter | ROT (time for the silage to heat 1.7° C. after exposure to air), replicate study C (replicate C): 86 h

Source: patent US20080138461A1, “Lactobacillus buchneri strain LN1297 and its use to improve aerobic stability of silage” (Pioneer Hi-Bred International, Inc., priority 2006, published 2008)
